What all share (format): cell-based, mouse
Test [1] concerns C2C12 cells. Description: G-418 selection of untransfected and neo-transfected C2C12 cells. The conditions noted are these: 500 μg/ml G-418, 11 days. As for the experimental part:
The Bcl-2 promoter-neo vector was prepared by using HindIII and MluI to excise the RSV promoter of pRSVneo (Gorman et al., Science 221:551-553 (1983)), after which an ˜2.6 kb PstI fragment of the human Bcl-2 promoter region (plasmid LB124; Chen et al., Mol. Cell. Biol. 15, 3840-3847 (1995)) was blunt-end ligated to the promotorless neo plasmid. C2C12 cells were transfected with Bcl-2-neo or pSV2neo using LIPOFECTAMINE™ (3:1 (w/w) 2,3-dioleyloxy-N-[2(spermine-carboxamido)ethyl]-N,N-dimethyl-1-propanaminiumtrifluoroacetate and dioleoyl phosphatidylethanolamine) (Gibco-BRL) and selected with G-418 (Dominov et al., Dev. Genet. 19, 108-118 (1996)).
To determine whether Bcl-2-expressing cells could function as stem cells, the differentiation of modified C2C12 cells that were selected based on their ability to express a Bcl-2 promoter fragment was examined. C2C12 cells were transfected with a plasmid in which expression of neomycin phosphotransferase was under the control of an ˜2.6 kb fragment of the human Bcl-2 promoter (Chen and Boxer, Mol. Cell. Biol. 15, 3840-3847 (1995)). From these transfections, four independent G-418-resistant lines (termed Bcl-2-neo cells) were isolated. […] In contrast, this treatment killed all untransfected C2C12 control cells and had no effect on C2C12 cells transfected with the ubiquitously expressed pSV2neo (FIG. 4). When transferred to fresh growth medium without G-418, the selected Bcl-2-neo cells resumed proliferation (FIG. 4) and were able to form multinucleate myotubes when switched to differentiation medium at confluence (not shown).

Test [2] relates to C2C12 cells. Description: MTT assay of mitochondrial function (cell viability) after apoptosis induction. The conditions noted are these: serum-free medium with 0.5 μM staurosporine, compared to growth medium or 2% HS; 1-2 days. On the technique in general: Tetrazolium dyes change colour on reduction, which living cells bring about.
Procedure: C2C12 and Sol8 cells were maintained in growth medium (DMEM with 15% fetal bovine serum, 2 mM L-glutamine, 10 mM HEPES, pH 7.4, and 100 U/ml penicillin) and induced to form myotubes in differentiation medium (growth medium with 2% horse serum in place of fetal bovine serum) (Yaffe et al., Nature 270, 725-727 (1977); Blau et al., Science 230, 758-766 (1985); and Montarras et al., New Biologist 3, 592-600 (1991)). […] Apoptosis was induced by transferring the cells to serum-free differentiation medium, with or without 0.5 μM staurosporine, and cell viability was measured by the MTT assay of mitochondrial function (Jacobsen et al., EMBO J. 13, 1899-1910 (1994)).
In this experiment, apoptosis was induced and Bcl-2 expression, cell viability, and differentiation capability were examined in cultures of myogenic cells.
The subject of test [3] is C2C12 cells. Description: Percentage of Bcl-2-expressing cells after apoptosis induction (immunostaining). The conditions noted are these: serum-free medium with staurosporine; increased from less than 20%.
Procedure: Apoptosis was induced by transferring the cells to serum-free differentiation medium, with or without 0.5 μM staurosporine, and cell viability was measured by the MTT assay of mitochondrial function (Jacobsen et al., EMBO J. 13, 1899-1910 (1994)).
The hamster mAb, 3 F11, is specific for mouse Bcl-2 (Krajewski et al., Cancer Res. 53, 4701-4714 (1993)) and was used at 25 μg/ml.

Molecules are shown by their SMILES. Entries after “also recorded” stand apart in the source; their conditions may differ.

`CN[C@@H]1[C@@H](O)[C@@H](O[C@@H]2[C@@H](O)[C@H](O[C@H]3O[C@H]([C@@H](C)O)[C@@H](O)[C@H](O)[C@H]3N)[C@@H](N)C[C@H]2N)OC[C@]1(C)O` [G-418]: in the test with C2C12 cells [1], the “effect on C2C12 cells carrying neo under SV40 promoter (pSV2neo)” value is “no effect”, the “survival of C2C12 cells carrying Bcl-2 promoter-neo fusion gene (Bcl-2-neo)” value is recorded as “a portion of C2C12 cells that carry a Bcl-2 promoter-neo fusion gene (Bcl-2-neo) survived; also recorded: a portion of the cells remained viable” and the “survival of untransfected C2C12 cells (control)” value is given as “killed all”.
For the compound `CN[C@@H]1C[C@H]2O[C@@](C)([C@@H]1OC)n1c3ccccc3c3c4c(c5c6ccccc6n2c5c31)C(=O)NC4` [staurosporine], the “number of viable C2C12 cells” value with C2C12 cells [2] is listed as “greatly reduced; also recorded: decreased”. In addition, the “percentage of muscle stem cells in the population” value with C2C12 cells [3] is given as 50-80%.

The values are drawn from patent publication US6337184B1, “Molecular marker for muscle stem cells” (priority 1997, dated 2002).
